Test results published in PMC12477080, “Polychlorinated biphenyls (PCBs) interact with drug metabolism in vivo” (Archives of Toxicology, 2025).

Assay: Stability of substrates and metabolites in quality control samples (benchtop, autosampler, freeze-thaw)
Type: physicochemical
Details: for Autosampler stability (24 h) Av. Accuracy (%): 10° C for 24 hours in the autosampler; for 3x freeze-thaw Av. Accuracy (%): after three freeze-thaw cycles; for Benchtop stability (19 h) Ac. Accuracy (%): room temperature for 19 hours
Description: The method was validated for intra- and interday accuracy and precision, stability, and matrix effects. […] Validation details are provided in Supplementary Tables 5–7 and supplemental Fig. 3. Glucuronidase/sulfatase digests were used to isolate CYP-specific metabolic activities, reducing interference from polymorphic UDP-glucuronosyltransferase (UGT) and sulfotransferase isoforms.
Supplemental table 6: Stability of the substrates and metabolites. Quality control samples were left at room temperature for 19 hours (benchtop stability) and at 10° C for 24 hours in the autosampler (autosampler stability) or were measured after three freeze-thaw cycles. Stability samples were measured against a freshly prepared set of calibrators and quality control samples.

Row | SMILES | Autosampler stability (24 h) Av. Accuracy (%) (QC conc. 60 ng/ml) | 3x freeze-thaw Av. Accuracy (%) (QC conc. 60 ng/ml) | Benchtop stability (19 h) Ac. Accuracy (%) (QC conc. 60 ng/ml) | Autosampler stability (24 h) Av. Accuracy (%) (QC conc. 0,5 ng/ml) | 3x freeze-thaw Av. Accuracy (%) (QC conc. 0,5 ng/ml) | Benchtop stability (19 h) Ac. Accuracy (%) (QC conc. 0,5 ng/ml) | Autosampler stability (24 h) Av. Accuracy (%) (QC conc. 0,25 ng/ml) | 3x freeze-thaw Av. Accuracy (%) (QC conc. 0,25 ng/ml) | Benchtop stability (19 h) Ac. Accuracy (%) (QC conc. 0,25 ng/ml) | Autosampler stability (24 h) Av. Accuracy (%) (QC conc. 150 ng/ml) | 3x freeze-thaw Av. Accuracy (%) (QC conc. 150 ng/ml) | Benchtop stability (19 h) Ac. Accuracy (%) (QC conc. 150 ng/ml) | Autosampler stability (24 h) Av. Accuracy (%) (QC conc. 1,5 ng/ml) | 3x freeze-thaw Av. Accuracy (%) (QC conc. 1,5 ng/ml) | Benchtop stability (19 h) Ac. Accuracy (%) (QC conc. 1,5 ng/ml) | further results
1 | OCc1ncc2n1-c1ccc(Cl)cc1C(c1ccccc1F)=NC2 [1-OH-midazolam] | 105,87% | 100,47% | 105,11% |  |  |  |  |  |  |  |  |  |  |  |  | Autosampler stability (24 h) Av. Accuracy (%) (QC conc. 0,2 ng/ml): 102,59%; 3x freeze-thaw Av. Accuracy (%) (QC conc. 0,2 ng/ml): 108,6%; Benchtop stability (19 h) Ac. Accuracy (%) (QC conc. 0,2 ng/ml): 82,15%; Autosampler stability (24 h) Av. Accuracy (%) (QC conc. 0,6 ng/ml): 107,25%; 3x freeze-thaw Av. Accuracy (%) (QC conc. 0,6 ng/ml): 109,36%; Benchtop stability (19 h) Ac. Accuracy (%) (QC conc. 0,6 ng/ml): 102,06%; Autosampler stability (24 h) Av. Accuracy (%) (QC conc. 24 ng/ml): 113,74%; 3x freeze-thaw Av. Accuracy (%) (QC conc. 24 ng/ml): 106,45%; Benchtop stability (19 h) Ac. Accuracy (%) (QC conc. 24 ng/ml): 112,46%
2 | COc1ccc2nc([S+]([O-])Cc3ncc(CO)c(OC)c3C)[nH]c2c1 (stereo not drawn) [5-OH-omeprazole] | 104,61% | 99,23% | 99,68% | 112,52% | 105,73% | 95,94% | 90,94% | 101,98% | 99,1% | 97,73% | 100,57% | 92,79% | 102,58% | 103,03% | 98,98% | 
3 | O=C1Nc2c(O)cc(Cl)cc2[C@@](C#CC2CC2)(C(F)(F)F)O1 [8-OH-efavirenz] | 86,15% | 79,98% | 77,52% | 86,73% | 84,9% | 74,06% | 86,81% | 84,61% | 69,5% | 78,85% | 77,49% | 74,14% | 88,49% | 79,73% | 76,61% | 
4 | COCC(O)c1ccc(OCC(O)CNC(C)C)cc1 (stereo not drawn) [OH-metoprolol] | 97,01% | 91,98% | 95,47% | 101,05% | 95,27% | 90,1% | 90,24% | 85,17% | 81,14% | 88,29% | 87,96% | 88,26% | 96,56% | 95,33% | 94,57% | 
